What was measured:
IRE1α [1] = biological target: T1, IRE1α (Homo sapiens (Human), UniProt O75460); test: In vitro FRET assay; assay type: biochemical; conditions: XBP1 RNA probe
Outline: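 IRE1α (diluted to 2 nM) in citrate buffer pH 7.15 with serially diluted compound; FAM/Iowa Black-quenched XBP1 RNA probe (wildtype or non-spliceable mutant) added, fluorescence read […]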

IRE1α [2] = biological target: T1, IRE1α; test: In vitro luciferase assay (IRE1α Endoribonuclease Nanoluciferase Assay); assay type: cell-based; conditions: 293T cells, XBP1 luciferase reporter
Outline: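 293T cells transiently transfected with a PGK-Luc2-P2A-XBP1u-nanoluciferase-PEST reporter for IRE1α-dependent XBP1 splicing, replated, and treated next day with ER stressors ± inhibitors. Lysates read sequentially for luminescence (OneGlo, then Stop and Glo), 1000 ms integration.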

IRE1 = IRE1 (Homo sapiens (Human), UniProt O75460); test: qPCR assay of XBP1 splicing; assay type: cell-based; conditions: 293T cells, tunicamycin-induced ER stress
Sequence of IRE1 (O75460 19-977): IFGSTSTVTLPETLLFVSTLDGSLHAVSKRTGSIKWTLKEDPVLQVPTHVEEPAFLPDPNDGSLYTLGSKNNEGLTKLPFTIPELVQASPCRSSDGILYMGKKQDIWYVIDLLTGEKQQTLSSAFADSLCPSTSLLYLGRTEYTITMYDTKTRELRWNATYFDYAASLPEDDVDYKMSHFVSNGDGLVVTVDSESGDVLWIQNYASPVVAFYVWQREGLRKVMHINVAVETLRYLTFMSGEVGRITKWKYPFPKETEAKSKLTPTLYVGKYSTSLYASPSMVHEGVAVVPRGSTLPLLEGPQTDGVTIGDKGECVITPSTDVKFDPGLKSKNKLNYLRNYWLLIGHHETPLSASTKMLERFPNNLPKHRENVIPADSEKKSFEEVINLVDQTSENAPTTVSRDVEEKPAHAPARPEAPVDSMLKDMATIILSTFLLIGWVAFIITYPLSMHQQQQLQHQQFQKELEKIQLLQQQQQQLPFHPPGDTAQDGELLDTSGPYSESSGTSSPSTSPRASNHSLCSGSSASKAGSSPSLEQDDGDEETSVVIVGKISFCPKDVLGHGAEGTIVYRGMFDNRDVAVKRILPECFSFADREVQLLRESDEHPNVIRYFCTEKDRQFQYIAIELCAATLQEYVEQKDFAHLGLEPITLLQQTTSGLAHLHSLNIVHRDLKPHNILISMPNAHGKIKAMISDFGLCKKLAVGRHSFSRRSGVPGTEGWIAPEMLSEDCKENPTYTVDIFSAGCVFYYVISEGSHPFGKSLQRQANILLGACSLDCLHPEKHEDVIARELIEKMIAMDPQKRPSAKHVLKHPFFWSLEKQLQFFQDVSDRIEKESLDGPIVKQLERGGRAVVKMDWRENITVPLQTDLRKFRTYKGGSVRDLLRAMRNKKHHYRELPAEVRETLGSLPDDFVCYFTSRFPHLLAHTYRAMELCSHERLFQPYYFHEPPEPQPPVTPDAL
Protocol: A quantitative PCR (qPCR) assay was performed to evaluate the ability of compound 17 and compound 23 to inhibit IRE1. To perform the qPCR assay, 50,000 293T cells were plated in each well of a flat-bottomed 96 well plates in duplicate. Test compounds or DMSO control were diluted to 4× their final concentration and 50 microliters were added to the cells. Compounds were incubated for 1 hour, then 50 microliters of 4× concentrated tunicamycin (8 ug/mL) were added to the cells to induce ER stress. ER stress was allowed to accumulate for 6 hours, after which the supernatant was removed and the cells were lysed with 150 uL of RLT lysis buffer (Qiagen). Samples were frozen at −80 degrees Celsius until RNA was isolated with the RNeasy 96 kit (Qiagen) according to the manufacturer's recommended protocol. The samples were used for subsequent RT-qPCR analysis of beta-actin, XBP1s, total XBP1 and SEC24D. Gene expression was evaluated by quantitative PCR for XBP1s, total XBP1 and SEC24D transcripts using the 2^(−ΔCT) method for calculating normalized gene expression. Gene expression levels were normalized to ACTB transcripts. XBP1 splicing is calculated as XBP1s expression divided by total XBP1 expression. […] See FIG. 3A (Compound 17) and FIG. 3B (Compound 23).

293T cells = test: Growth assay (cytotoxicity); assay type: cell-based; conditions: Homo sapiens, HEK-293T, 48 h, 2 day incubation, read-out: percentage growth at 5 uM
Protocol: A growth assay is performed to evaluate the compounds disclosed in Table 1 for cytotoxicity. Briefly, 5,000,000 293T cells are resuspended in 18 mL of cDMEM for a final concentration of 277,777 cells/mL. 180 μL (50,000 cells) cDMEM was seeded per well in 96 well flat bottom plate, with some wells left unfilled. In a 96 well plate, […] cDMEM and 1 uL of any one of the compounds disclosed herein. 133.3 uL cDMEM is added to wells 1, 2, 3, 5, 6, 7, 9, 10, and 11 of row A. Wells are serially diluted with 66.7 uL (highest concentration on right, lowest on left) to the total concentrations shown below. 20 uL of each dilution is transferred in duplicate to the cells plated in the 96-well plate. The plate is then placed in a humidified chamber for a 2 day incubation, and then photographed (media is more yellow in wells with potent cell growth). Absorbance is then measured at […] (lower for more acidic media) and […] (higher for more acidic media).

T1 sequence (O75460 19-977): as above

Row | SMILES | IC50 (IRE1α [1]) | EC50 (IRE1α [2]) | IC50 (IRE1) | viability at 5 µM (293T cells)
1 | COc1nc(NS(=O)(=O)c2ccccc2Cl)ccc1/C=C/c1cnc(NC2CCC(N(C)C)CC2)nc1 (centres unmarked) [Compound 17, 2-chloro-N-(5-((E)-2-(2-(((1r,4r)-4-(dimethylamino)cyclohexyl)amino)pyrimidin-5-yl)vinyl)-6-methoxypyridin-2-yl)benzenesulfonamide] | ≤ 1 nM | ≤ 5 nM | 4.95 nM | > 75%
2 | Cc1nc(NS(=O)(=O)c2ccccc2Cl)ccc1/C=C/c1cnc(NC2CCC(N(C)C)CC2)nc1 (centres unmarked) [Compound 23, 2-chloro-N-(5-((E)-2-(2-(((1r,4r)-4-(dimethylamino)cyclohexyl)amino)pyrimidin-5-yl)vinyl)-6-methylpyridin-2-yl)benzenesulfonamide] | ≤ 1 nM | ≤ 5 nM | 4.39 nM | > 75%
3 | CCc1nc(NS(=O)(=O)c2ccccc2Cl)ccc1C=Cc1cnc(NC2CCC(N)CC2)nc1 (centres unmarked) [Compound 45, N-(5-(2-(2-((1r,4r)-4-aminocyclohexyl)amino)pyrimidin-5-yl)vinyl)-6-ethylpyridin-2-yl)-2-chlorobenzenesulfonamide] | ≤ 1 nM | 5 to 50 nM | – | > 75%
4 | CCc1nc(NS(=O)(=O)c2ccccc2Cl)ccc1/C=C/c1cnc(NC2CCC(NC)CC2)nc1 (centres unmarked) [Compound 47, 2-chloro-N-(6-ethyl-5-((E)-2-(2-(((1r,4r)-4-(methylamino)cyclohexyl)amino)pyrimidin-5-yl)vinyl)pyridin-2-yl)benzenesulfonamide] | ≤ 1 nM | 5 to 50 nM | – | > 75%
